Experimental data: ChEMBL document CHEMBL5465560, “Selectivity Literature for EUbOPEN Chemogenomic Library” (2024)

Key:
[1] = biological target: Protein polybromo-1 (Homo sapiens) (UniProt Q86U86); test: Selectivity interaction (Human bromodomain panel (DSF assay)) EUB0000233b PBRM1
[2] = biological target: T1, Cyclin-G-associated kinase (Homo sapiens) (UniProt O14976); test: Selectivity interaction (KinomeScan (DiscoverX)) EUB0000595a GAK; conditions: at 10 µM
T1 sequence (whole entry): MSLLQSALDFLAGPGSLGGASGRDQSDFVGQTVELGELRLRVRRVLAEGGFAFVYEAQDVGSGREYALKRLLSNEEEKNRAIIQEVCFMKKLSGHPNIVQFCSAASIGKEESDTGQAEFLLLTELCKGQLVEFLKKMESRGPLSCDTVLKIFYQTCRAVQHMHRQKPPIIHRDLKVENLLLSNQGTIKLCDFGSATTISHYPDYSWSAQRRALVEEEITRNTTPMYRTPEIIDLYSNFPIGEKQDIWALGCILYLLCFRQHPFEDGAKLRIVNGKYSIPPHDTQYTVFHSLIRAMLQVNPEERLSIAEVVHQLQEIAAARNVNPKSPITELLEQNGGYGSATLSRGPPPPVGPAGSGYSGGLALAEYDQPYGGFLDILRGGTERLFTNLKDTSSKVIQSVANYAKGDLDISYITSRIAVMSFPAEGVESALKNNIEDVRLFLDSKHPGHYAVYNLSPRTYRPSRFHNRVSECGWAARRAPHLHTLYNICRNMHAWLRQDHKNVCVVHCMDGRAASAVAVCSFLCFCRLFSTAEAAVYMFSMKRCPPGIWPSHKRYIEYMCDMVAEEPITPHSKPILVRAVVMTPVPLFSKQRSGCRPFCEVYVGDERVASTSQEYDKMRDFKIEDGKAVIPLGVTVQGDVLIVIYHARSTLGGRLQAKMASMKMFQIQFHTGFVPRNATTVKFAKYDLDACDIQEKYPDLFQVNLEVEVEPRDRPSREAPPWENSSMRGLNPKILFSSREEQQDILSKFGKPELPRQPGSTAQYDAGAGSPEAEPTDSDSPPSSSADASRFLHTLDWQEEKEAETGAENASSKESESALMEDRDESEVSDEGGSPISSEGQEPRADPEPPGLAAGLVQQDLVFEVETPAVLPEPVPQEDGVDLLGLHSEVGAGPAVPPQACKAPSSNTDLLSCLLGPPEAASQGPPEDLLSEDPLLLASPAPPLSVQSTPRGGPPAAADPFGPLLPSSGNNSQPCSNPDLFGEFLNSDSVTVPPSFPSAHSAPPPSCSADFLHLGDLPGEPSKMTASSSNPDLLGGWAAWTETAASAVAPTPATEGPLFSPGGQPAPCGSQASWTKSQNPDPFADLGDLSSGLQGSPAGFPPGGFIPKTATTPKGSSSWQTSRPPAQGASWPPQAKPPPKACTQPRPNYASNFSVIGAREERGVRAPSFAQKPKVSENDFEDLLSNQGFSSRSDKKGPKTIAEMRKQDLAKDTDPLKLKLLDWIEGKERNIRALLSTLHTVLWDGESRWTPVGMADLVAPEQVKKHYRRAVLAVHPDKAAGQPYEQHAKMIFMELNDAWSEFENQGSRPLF

[3] = biological target: T2, Dual specificity mitogen-activated protein kinase kinase 3 (Homo sapiens) (UniProt P46734); test: Selectivity interaction (LanthaScreen Eu Kinase Binding Assay) EUB0001632a MAP2K3; conditions: at 10 µM
T2 sequence (whole entry): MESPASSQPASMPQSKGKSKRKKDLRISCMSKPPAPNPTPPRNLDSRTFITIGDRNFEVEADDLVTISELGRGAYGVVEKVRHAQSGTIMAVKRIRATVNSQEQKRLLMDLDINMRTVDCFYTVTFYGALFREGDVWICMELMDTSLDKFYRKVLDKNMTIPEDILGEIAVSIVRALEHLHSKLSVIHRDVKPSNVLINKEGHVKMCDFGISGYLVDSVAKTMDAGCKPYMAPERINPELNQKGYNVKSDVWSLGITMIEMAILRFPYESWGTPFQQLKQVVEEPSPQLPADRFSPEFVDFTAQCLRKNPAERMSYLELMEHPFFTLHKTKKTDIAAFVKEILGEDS

[4] = biological target: Homeodomain-interacting protein kinase 1 (Homo sapiens, UniProt Q86Z02); test: Selectivity interaction (KinomeScan (DiscoverX)) EUB0000666a HIPK1; conditions: at 10 µM
[5] = biological target: Phosphatidylinositol 4,5-bisphosphate 3-kinase catalytic subunit gamma isoform (Homo sapiens) (UniProt P48736); test: Selectivity interaction (ProQinase) EUB0000171b PIK3CG
[6] = biological target: Hepatocyte growth factor receptor (Homo sapiens, UniProt P08581); test: (§1) Selectivity interaction (KinomeScan (DiscoverX)) EUB0000618a MET; conditions: at 10 µM
[7] = tested on: Hepatocyte growth factor receptor (Homo sapiens), P08581 [M1250T]; test: as §1; conditions: at 10 µM
[8] = tested on: Hepatocyte growth factor receptor (Homo sapiens), P08581 [Y1235D]; test: as §1; conditions: at 10 µM
[9] = biological target: T3, Serine/threonine-protein kinase DCLK1 (Homo sapiens) (UniProt O15075); test: Selectivity interaction (KinomeScan (DiscoverX)) EUB0000618a DCLK1; conditions: at 10 µM
T3 sequence (whole entry): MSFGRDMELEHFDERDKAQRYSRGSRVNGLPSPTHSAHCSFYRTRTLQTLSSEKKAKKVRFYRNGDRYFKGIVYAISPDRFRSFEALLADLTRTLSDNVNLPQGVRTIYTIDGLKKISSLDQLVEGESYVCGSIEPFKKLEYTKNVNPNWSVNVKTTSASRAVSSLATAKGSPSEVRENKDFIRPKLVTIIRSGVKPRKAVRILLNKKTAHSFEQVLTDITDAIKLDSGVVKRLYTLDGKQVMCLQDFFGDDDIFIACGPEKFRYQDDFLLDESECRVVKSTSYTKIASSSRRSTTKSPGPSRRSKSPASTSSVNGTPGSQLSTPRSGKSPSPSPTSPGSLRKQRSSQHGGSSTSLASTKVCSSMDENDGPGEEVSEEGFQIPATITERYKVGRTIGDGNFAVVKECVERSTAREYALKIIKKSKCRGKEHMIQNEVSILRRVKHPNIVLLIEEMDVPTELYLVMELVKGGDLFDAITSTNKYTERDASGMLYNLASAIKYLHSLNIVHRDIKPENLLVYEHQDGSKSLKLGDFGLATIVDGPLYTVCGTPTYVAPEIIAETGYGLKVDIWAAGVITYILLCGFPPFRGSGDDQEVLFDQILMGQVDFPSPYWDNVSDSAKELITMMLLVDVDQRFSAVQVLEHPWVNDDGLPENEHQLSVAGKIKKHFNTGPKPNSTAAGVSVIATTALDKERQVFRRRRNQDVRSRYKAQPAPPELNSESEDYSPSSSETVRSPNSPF

[10] = biological target: Tyrosine-protein kinase HCK (Homo sapiens) (UniProt P08631); test: Selectivity interaction (ActivX KiNativ screen (kinase selectivity in THP-1 cell lysates)) EUB0000639a HCK; format: subcellular; conditions: lysate, at 1 µM
[11] = biological target: Dual specificity mitogen-activated protein kinase kinase 2 (Homo sapiens) (UniProt P36507); test: Selectivity interaction (ActivX KiNativ screen (kinase selectivity in THP-1 cell lysates)) EUB0000639a MAP2K2; format: subcellular; conditions: lysate, at 0.04 µM
Chain of Dual specificity mitogen-activated protein kinase kinase 2 (Homo sapiens) (P36507 whole entry): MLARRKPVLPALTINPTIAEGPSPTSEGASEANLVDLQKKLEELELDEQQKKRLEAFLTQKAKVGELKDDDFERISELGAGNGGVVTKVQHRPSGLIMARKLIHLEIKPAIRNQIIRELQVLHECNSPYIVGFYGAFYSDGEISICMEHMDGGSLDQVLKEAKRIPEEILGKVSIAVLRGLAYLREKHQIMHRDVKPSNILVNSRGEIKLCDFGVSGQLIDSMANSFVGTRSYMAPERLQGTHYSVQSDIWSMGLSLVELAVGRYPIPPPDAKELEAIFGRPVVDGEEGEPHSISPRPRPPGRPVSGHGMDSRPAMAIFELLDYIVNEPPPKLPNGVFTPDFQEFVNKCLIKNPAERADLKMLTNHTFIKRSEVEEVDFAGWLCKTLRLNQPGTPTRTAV

Chain of Phosphatidylinositol 4,5-bisphosphate 3-kinase catalytic subunit gamma isoform (Homo sapiens) (P48736 whole entry, looked up, canonical isoform): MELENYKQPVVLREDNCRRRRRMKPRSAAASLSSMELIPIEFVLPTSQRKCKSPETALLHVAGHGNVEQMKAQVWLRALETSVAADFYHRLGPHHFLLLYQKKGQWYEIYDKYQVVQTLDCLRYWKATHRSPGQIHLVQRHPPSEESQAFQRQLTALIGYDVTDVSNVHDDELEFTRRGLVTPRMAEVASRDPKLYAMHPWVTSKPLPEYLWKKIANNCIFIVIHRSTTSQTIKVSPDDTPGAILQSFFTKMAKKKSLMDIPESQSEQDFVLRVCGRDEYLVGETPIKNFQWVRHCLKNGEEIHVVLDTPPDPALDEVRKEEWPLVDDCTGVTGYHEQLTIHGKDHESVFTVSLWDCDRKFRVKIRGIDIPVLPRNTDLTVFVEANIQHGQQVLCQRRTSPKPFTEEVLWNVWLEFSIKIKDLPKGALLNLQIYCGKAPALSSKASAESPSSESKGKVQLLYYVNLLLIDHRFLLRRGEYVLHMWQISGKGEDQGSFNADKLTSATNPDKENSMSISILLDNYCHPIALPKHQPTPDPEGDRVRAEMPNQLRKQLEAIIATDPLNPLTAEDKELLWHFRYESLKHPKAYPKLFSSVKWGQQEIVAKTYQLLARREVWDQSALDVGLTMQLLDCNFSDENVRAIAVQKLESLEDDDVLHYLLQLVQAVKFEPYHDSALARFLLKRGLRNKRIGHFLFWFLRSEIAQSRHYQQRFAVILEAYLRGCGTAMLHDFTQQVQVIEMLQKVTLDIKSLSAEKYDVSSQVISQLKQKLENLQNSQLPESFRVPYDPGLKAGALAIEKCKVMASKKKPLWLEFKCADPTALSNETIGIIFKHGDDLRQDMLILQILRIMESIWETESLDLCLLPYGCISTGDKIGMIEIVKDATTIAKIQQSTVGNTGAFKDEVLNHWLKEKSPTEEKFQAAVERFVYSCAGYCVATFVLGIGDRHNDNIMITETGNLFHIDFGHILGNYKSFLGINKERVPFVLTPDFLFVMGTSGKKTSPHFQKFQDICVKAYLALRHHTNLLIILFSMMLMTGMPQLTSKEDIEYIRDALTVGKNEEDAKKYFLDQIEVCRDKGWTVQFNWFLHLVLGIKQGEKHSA
Chain of Tyrosine-protein kinase HCK (Homo sapiens) (P08631 2-526 limits assumed): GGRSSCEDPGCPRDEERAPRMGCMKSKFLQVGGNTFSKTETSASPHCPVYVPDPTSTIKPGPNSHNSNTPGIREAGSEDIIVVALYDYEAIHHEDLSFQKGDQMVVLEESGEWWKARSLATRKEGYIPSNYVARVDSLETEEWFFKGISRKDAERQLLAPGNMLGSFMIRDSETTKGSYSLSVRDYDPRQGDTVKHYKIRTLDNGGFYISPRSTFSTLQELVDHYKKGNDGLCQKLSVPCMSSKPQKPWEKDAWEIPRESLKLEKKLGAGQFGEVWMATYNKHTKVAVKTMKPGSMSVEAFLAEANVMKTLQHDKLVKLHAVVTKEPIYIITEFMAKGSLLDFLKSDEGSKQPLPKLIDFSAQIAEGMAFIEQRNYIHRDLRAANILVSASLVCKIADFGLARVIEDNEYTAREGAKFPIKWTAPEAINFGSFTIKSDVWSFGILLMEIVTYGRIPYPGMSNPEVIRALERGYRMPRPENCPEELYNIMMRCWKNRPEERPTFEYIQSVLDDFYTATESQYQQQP
Chain of Homeodomain-interacting protein kinase 1 (Q86Z02 whole entry, looked up, canonical isoform): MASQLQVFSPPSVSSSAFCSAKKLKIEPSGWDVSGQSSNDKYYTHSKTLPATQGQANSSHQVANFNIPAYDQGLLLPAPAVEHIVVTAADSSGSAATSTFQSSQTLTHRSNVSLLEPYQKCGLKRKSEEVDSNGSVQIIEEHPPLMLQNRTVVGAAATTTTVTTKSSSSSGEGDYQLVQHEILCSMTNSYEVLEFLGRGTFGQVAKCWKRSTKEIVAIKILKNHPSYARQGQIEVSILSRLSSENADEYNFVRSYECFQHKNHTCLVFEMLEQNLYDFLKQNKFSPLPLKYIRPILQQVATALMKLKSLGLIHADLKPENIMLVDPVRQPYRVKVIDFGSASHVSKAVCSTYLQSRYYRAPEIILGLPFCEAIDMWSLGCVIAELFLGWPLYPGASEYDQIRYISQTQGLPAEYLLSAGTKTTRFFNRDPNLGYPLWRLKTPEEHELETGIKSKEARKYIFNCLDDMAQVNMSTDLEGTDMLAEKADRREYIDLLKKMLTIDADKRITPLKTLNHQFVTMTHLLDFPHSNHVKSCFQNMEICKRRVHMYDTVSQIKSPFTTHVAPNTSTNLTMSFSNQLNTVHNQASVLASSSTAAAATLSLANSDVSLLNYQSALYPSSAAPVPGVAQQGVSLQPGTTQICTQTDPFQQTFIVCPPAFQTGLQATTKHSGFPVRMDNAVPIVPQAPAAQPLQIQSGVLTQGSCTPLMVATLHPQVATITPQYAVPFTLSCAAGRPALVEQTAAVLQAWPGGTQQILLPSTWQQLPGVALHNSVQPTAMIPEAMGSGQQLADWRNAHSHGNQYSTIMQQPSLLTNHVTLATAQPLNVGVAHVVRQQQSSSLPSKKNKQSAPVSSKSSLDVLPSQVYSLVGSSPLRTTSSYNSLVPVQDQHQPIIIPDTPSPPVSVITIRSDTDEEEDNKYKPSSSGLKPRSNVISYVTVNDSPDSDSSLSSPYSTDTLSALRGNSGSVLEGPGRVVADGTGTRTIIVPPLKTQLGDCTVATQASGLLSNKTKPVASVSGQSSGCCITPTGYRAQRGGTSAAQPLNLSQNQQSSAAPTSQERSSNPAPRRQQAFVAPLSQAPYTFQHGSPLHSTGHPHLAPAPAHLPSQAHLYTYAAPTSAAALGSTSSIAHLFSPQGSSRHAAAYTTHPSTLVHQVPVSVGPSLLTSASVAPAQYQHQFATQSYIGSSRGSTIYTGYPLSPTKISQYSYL
Chain of Hepatocyte growth factor receptor (Homo sapiens), P08581 [Y1235D] (P08581 whole entry Y1235D): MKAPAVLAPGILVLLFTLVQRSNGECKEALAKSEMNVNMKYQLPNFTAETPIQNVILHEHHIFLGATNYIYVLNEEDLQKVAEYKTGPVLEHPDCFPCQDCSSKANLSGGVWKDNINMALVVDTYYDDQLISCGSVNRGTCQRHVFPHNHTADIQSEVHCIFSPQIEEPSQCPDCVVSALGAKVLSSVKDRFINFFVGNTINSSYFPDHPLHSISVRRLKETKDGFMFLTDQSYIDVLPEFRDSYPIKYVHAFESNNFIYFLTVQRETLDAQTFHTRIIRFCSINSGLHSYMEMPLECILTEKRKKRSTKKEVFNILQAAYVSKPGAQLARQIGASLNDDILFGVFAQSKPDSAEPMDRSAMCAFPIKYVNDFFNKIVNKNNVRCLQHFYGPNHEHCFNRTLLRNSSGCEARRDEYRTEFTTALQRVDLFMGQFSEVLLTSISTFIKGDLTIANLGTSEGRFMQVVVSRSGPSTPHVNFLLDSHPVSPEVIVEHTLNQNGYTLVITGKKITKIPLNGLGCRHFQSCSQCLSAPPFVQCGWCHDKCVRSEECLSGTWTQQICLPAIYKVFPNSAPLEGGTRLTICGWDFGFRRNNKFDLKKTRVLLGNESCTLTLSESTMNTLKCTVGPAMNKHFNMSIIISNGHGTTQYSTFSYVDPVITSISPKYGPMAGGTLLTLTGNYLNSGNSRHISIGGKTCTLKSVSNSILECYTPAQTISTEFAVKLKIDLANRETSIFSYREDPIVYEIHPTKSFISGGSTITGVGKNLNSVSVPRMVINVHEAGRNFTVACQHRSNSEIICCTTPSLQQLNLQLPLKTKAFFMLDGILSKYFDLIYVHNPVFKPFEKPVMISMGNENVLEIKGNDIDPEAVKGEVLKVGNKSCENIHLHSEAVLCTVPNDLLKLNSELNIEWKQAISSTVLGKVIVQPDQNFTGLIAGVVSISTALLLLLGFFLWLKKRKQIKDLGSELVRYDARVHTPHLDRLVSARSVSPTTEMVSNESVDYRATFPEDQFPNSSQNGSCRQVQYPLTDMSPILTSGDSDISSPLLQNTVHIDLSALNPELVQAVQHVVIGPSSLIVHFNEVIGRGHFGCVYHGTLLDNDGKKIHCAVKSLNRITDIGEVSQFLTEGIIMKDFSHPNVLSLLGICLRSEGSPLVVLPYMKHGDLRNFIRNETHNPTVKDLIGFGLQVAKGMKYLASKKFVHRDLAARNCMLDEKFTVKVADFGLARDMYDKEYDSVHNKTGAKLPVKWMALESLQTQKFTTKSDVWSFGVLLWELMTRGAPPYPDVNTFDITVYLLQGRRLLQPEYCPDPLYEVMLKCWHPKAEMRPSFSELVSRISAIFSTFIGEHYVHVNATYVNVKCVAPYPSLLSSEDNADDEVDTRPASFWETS

## CN(C)CCCOc1ccc(-c2cc(NCCCn3cccn3)nc(S(C)(=O)=O)n2)cc1
[1]
  dTM: < 2 K

## COCC(=O)NC/C=C/c1ccc2ncnc(Nc3ccc(Oc4ccc(C)nc4)c(C)c3)c2c1 [CP-724714]
[2]
  % of control: 84%

## Cn1cc(-n2cnc3c(NCc4nc5cc(Cl)c(Cl)cc5[nH]4)nc(N4CCOCC4)nc32)cn1
[3]
  % of inhibition: -63.6%

## O=C(NOC[C@H](O)CO)c1ccc(F)c(F)c1Nc1ccc(I)cc1F
[4]
  % of control: 91%

## C=CC(=O)Nc1cccc(C(=O)Nc2ccc(Nc3cc(-c4[nH]c(SC)nc4C)ccn3)cc2)c1
[5]; at 1 µM
  % of control: 176%
[5]; at 5 µM
  % of control: 156%

## O[C@H]1CC[C@H](Nc2ncc3nc(Nc4c(F)cc(F)cc4F)n([C@H]4CCOC4)c3n2)CC1
[6]
  % of control: 100%
[7]
  % of control: 100%
[8]
  % of control: 100%
[9]
  % of control: 81%

## CC[C@@H]1[C@H](F)C(=O)N[C@@H]1COc1nccc2cc(C(N)=O)c(OC)cc12 [ZIMLOVISERTIB]
[10]
  % of inhibition: -16.5%
[11]
  % of inhibition: -38.8%
